Data as given in ChEMBL document CHEMBL6177980 (J Med Chem, 2025).
Activity calls are given as the source filed them. No cut-off for these calls is given here.

Tests used:
[1] = Prodrug conversion in C57BL/6J mouse assessed as half life of 4'-Fluorouridine metabolite treated orally by LC-MS/MS analysis; type: ADME; conditions: in vivo, po
[2] = Prodrug conversion in Sprague-Dawley rat assessed as 4'-Fluorouridine-NTP metabolite formation in brain at 6 mg/kg, po measured for 0.5 to 24 hrs by LC-MS/MS analysis; type: ADME, organism-based; conditions: in vivo, time 0.5-24 hrs
[3] = Prodrug conversion in Beagle dog assessed as Cmax of 4'-Fluorouridine metabolite at 3 mg/kg, po by LC-MS/MS analysis; type: ADME, organism-based, Canis lupus familiaris; conditions: in vivo
[4] = Prodrug conversion in Beagle dog assessed as volume of distribution at steady state of 4'-Fluorouridine metabolite treated orally or intravenously by LC-MS/MS analysis; type: ADME, Canis lupus familiaris; conditions: in vivo, po
[5] = Prodrug conversion in Sprague-Dawley rat assessed as half life of 4'-Fluorouridine metabolite treated orally or intravenously by LC-MS/MS analysis; type: ADME; conditions: in vivo, po
[6] = Prodrug conversion in Sprague-Dawley rat assessed as 4'-Fluorouridine metabolite formation in small intestine at 6 mg/kg, po measured for 0.5 to 24 hrs by LC-MS/MS analysis; type: ADME, organism-based; conditions: in vivo, time 0.5-24 hrs
[7] = Prodrug conversion in Beagle dog plasma assessed as parent nucleoside metabolite formation at 1 uM measured up to 60 mins by LC-MS/MS analysis; type: ADME, cell-free, Canis lupus familiaris; conditions: 1 h
[8] = system: Mammarenavirus choriomeningitidis; experiment: Antiviral activity against LCMV infected in C57BL/6-Prf1tm1Sdz/J mouse assessed as reduction in viral titer in spleen treated orally once daily for 7 days by RT-qPCR analysis; type: functional, organism-based; conditions: dose 1-5 mg/kg, route po, time 7.0 day
[9] = Prodrug conversion in Sprague-Dawley rat plasma assessed as parent nucleoside metabolite formation administered orally or intravenously; type: ADME, cell-free; conditions: po
[10] = Prodrug conversion in Sprague-Dawley rat assessed as Cmax of 4'-Fluorouridine metabolite at 6 mg/kg/day, po treated for 7 days by LC-MS/MS analysis; type: ADME, organism-based; conditions: in vivo, 168 h, time 7 day
[11] = Stability of compound at pH 4.0 assessed as change in purity at 1 mg/ml incubated for 4 hrs by HPLC analysis; type: physicochemical; conditions: buffer, pH 4, 4 h
[12] = Stability of compound at pH 1.5 assessed as change in purity at 1 mg/ml incubated for 24 hrs by HPLC analysis; type: physicochemical; conditions: buffer, pH 1.5, 24 h
[13] = system: Mammarenavirus choriomeningitidis; experiment: Antiviral activity against LCMV infected in C57BL/6-Prf1tm1Sdz/J mouse assessed as reduction in viral copy number in liver treated orally once daily for 7 days by RT-qPCR analysis; type: functional, organism-based; conditions: dose 1-5 mg/kg, route po, time 7.0 day
[14] = Cytotoxicity against African green monkey Vero cells; type: toxicity, cell-based; conditions: chlorocebus sabaeus
[15] = Prodrug conversion in Sprague-Dawley rat assessed as 4'-Fluorouridine metabolite formation in heart at 6 mg/kg, po measured for 0.5 to 24 hrs by LC-MS/MS analysis; type: ADME, organism-based; conditions: in vivo, time 0.5-24 hrs
[16] = Stability in Sprague-Dawley rat plasma administered orally or intravenously; type: ADME, cell-free; conditions: po
[17] = system: Mammarenavirus choriomeningitidis; experiment: In vivo antiviral activity against LCMV infected in C57BL/6-Prf1tm1Sdz/J mouse assessed as improvement in platelet count at 1 to 5 mg/kg, po qd treated for 7 days; type: functional, organism-based; conditions: dose 1-5 mg/kg, time 7.0 day
[18] = Prodrug conversion in Sprague-Dawley rat assessed as 4'-Fluorouridine-NTP metabolite formation in spleen at 6 mg/kg, po measured for 0.5 to 24 hrs by LC-MS/MS analysis; type: ADME, organism-based; conditions: in vivo, time 0.5-24 hrs
[19] = Prodrug conversion in Sprague-Dawley rat assessed as 4'-Fluorouridine metabolite formation in spleen at 6 mg/kg, po measured for 0.5 to 24 hrs by LC-MS/MS analysis; type: ADME, organism-based; conditions: in vivo, time 0.5-24 hrs
[20] = Prodrug conversion in C57BL/6J mouse assessed as AUC (0 to t) of 4'-Fluorouridine metabolite at 6 mg/kg, po by LC-MS/MS analysis; type: ADME, organism-based; conditions: in vivo
[21] = AUC (0 to t) in fasted Cynomolgus monkey at 11.6 mg/kg, po by LC-MS/MS analysis; type: ADME, organism-based, Macaca fascicularis; conditions: in vivo
HepG2 = experiment: Mitochondrial toxicity in human HepG2 cells cultured in galactose containing medium at 100 uM; type: cell-based; conditions: hepg2, 100 µM
[22] = Prodrug conversion in Sprague-Dawley rat assessed as Cmax of 4'-Fluorouridine metabolite at 6 mg/kg, po by LC-MS/MS analysis; type: ADME, organism-based; conditions: in vivo

For `CC(C)C(=O)OC[C@@]1(F)O[C@@H](n2ccc(=O)n(COC(=O)c3cccnc3)c2=O)[C@H](OC(=O)C(C)C)[C@@H]1OC(=O)C(C)C`, the t1/2 [1] was 12 h, the Drug metabolism [2] was “metabolite_detected” and the Cmax [3] was 495 ng/mL. For the same molecule, the Vdss [4] was 3.07 L/kg, the t1/2 [5] was 15 h and the Drug metabolism [6] was “metabolite_detected”. The Drug metabolism [7] was “metabolite_detected”, the Activity [8] was “Dose-dependent-effect” and the Drug metabolism [9] was “metabolite_detected”. For the same molecule, the Cmax [10] was 383 ng/mL, the Activity [11] was 0% and the Activity [12] was -9.2%. The Activity [13] was “Dose-dependent-effect”, the CC50 [14] was greater than 100 µM and the Drug metabolism [15] was “metabolite_detected”. The Stability [16] was “Unstable”, the Activity [17] was “Active” and the Drug metabolism [18] was “metabolite_detected”. The Drug metabolism [19] was “metabolite_detected”, the AUCt [20] was 1729 ng·h/mL and the AUC(0-t) [21] was 15100 ng·h/mL. The Activity (HepG2) was “Non-toxic” and the Cmax [22] was 329 ng/mL.
